Reference: PubChem BioAssay (NCI)
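Following 48 hours of exposure in 96-well plates, responses at five concentrations were used to interpolate endpoints linearly. TGI: concentration producing complete growth inhibition.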

Experiments:
Experiment in all cases: NCI anticancer screen, dose series, 48 h
[1] = system: SF-295 CNS
[2] = system: SK-MEL-5 melanoma
[3] = system: NCI/ADR-RES ovarian
[4] = system: CAKI-1 renal
[5] = system: UO-31 renal
[6] = system: HOP-92 NSCLC
[7] = system: NCI-H460 lung
[8] = system: RPMI-8226 leukemia
[9] = system: SW-620 colon
[10] = system: OVCAR-5 ovarian
[11] = system: A498 renal
[12] = system: SN12C renal
[13] = system: U251 CNS
[14] = system: HL-60(TB) leukemia
[15] = system: PC-3 prostate
[16] = system: OVCAR-8 ovarian
[17] = system: HCC-2998 colon
[18] = system: A549 NSCLC
[19] = system: OVCAR-4 ovarian
[20] = system: SK-MEL-2 melanoma
[21] = system: 786-0 renal
[22] = system: HS 578T breast
[23] = system: T-47D breast
[24] = system: MALME-3M melanoma
[25] = system: M14 melanoma
[26] = system: MDA-MB-231 breast
[27] = system: CCRF-CEM leukemia
[28] = system: NCI-H522 lung
[29] = system: MDA-MB-435
[30] = system: HT29 colon
[31] = system: SNB-75 CNS
[32] = system: COLO 205 colon
[33] = system: SF-268 CNS
[34] = system: TK-10 renal
[35] = system: HCT-116 colon
[36] = system: DU-145 prostate
[37] = system: HCT-15 colon
[38] = system: ACHN renal
[39] = system: SR leukemia
[40] = system: OVCAR-3 ovarian
[41] = system: IGROV1 ovarian
[42] = system: KM12 colon
[43] = system: HOP-62 NSCLC
[44] = system: UACC-257 melanoma
[45] = system: MCF7 breast
[46] = system: MOLT-4 leukemia
[47] = system: EKVX NSCLC
[48] = system: UACC-62 melanoma
[49] = system: SF-539 CNS
[50] = system: NCI-H23 lung
[51] = system: SK-MEL-28 melanoma
[52] = system: LOX IMVI melanoma

Measured: TGI

CCOC(=O)C1C(c2ccc3c(c2)OCO3)c2c([nH][nH]c2=O)CC1(O)OCC (configuration not stated)
> 100 µM: [1] | [2] | [3] | [4] | [5] | [6] | [7] | [8] | [9] | [10] | [11] | [12] | [13] | [14] | [15] | [16] | [17] | [18] | [19] | [20] | [21] | [22] | [23] | [24] | [25] | [26] | [27] | [28] | [29] | [30] | [31] | [32] | [33] | [34] | [35] | [36] | [37] | [38] | [39] | [40] | [41] | [42] | [43] | [44] | [45] | [46] | [47] | [48] | [49] | [50] | [51] | [52]
